Reference: patent EP2210885A1, “Substituted heteroarylpiperidine derivatives as melanocortin-4 receptor modulators” (Santhera Pharmaceuticals (Schweiz) AG, priority 2009, dated 2010)

Legend:
hMC-4R [1] = target: T1, hMC-4R (Homo sapiens, UniProt P32245); test: hMC-4R functional assay (membrane based cAMP fluorescence polarization, agonistic activity); assay type: biochemical; settings: cAMP produced compared to stimulation with NDP-alpha-MSH
T1 construct: expressed in transfected cells; host or cells: HEK293 cell membrane preparations
Method: Agonistic activity of human melanocortin receptors is determined in a homogeneous membrane based assay.
The test compound or unlabeled NDP-alpha-MSH is dispensed at varying concentrations to a 384 well microtiter plate. Membrane preparations from HEK293 cells expressing the human melanocortin receptors are added. After a short preincubation period, an appropriate amount of ATP, GTP and the cAMP antibody is added and the plate is further incubated before the fluorescence labeled cAMP conjugate is dispensed. The plate is incubated for 2 h at 4°C before it is read on a fluorescence polarization microplate reader. The amount of cAMP produced as a response to a test compound is compared to the production of cAMP resulting from stimulation with NDP-alpha-MSH.

hMC-4R [2] = target: T1, hMC-4R; test: hMC-4R membrane binding assay (fluorescence polarization, competition with fluorescence labeled NDP-alpha-MSH); settings: HEK293 cell membrane preparations expressing human melanocortin receptors; values grouped in classes
Method: A membrane binding assay is used to identify competitive inhibitors of fluorescence labeled NDP-alpha-MSH binding to HEK293 cell membrane preparations expressing human melanocortin receptors.
The test compound or unlabeled NDP-alpha-MSH is dispensed at varying concentrations to a 384 well microtiter plate. Fluorescence labeled NDP-alpha-MSH is dispensed at a single concentration, followed by addition of membrane preparations. The plate is incubated for 5 h at room temperature.
The degree of fluorescence polarization is determined with a fluorescence polarization microplate reader.

T1 sequence (P32245 whole entry): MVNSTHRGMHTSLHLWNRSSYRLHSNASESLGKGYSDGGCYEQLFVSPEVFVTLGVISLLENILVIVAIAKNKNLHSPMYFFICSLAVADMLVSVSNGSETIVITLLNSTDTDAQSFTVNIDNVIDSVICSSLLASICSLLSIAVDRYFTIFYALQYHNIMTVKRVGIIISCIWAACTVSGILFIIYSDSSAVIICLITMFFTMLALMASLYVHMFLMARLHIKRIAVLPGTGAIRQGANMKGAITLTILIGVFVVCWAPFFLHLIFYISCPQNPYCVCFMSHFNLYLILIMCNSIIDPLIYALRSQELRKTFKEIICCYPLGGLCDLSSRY

% activation functional assay (hMC-4R [1]) [%]	IC50 (hMC-4R [2]) [µM]	SMILES
4	≤ 0.1	CCC(COc1cccnc1C1CCN(C(=O)C(Cc2ccc(Cl)cc2Cl)NC(=O)OC(C)C)CC1)N(C)C (stereo not drawn) [Example 2]
0	0.1 to 1	CC[C@H](COc1cccnc1C1CCN(C(=O)[C@@H](Cc2ccc(Cl)cc2Cl)NC(=O)OC2CCCC2)CC1)N(C)C [Example 3]

SMILES	% activation functional assay (hMC-4R [1]) [%]	IC50 (hMC-4R [2]) [µM]
CCOC(=O)N[C@H](Cc1ccc(Cl)cc1Cl)C(=O)N1CCC(c2ncccc2OC[C@@H](CC)N(C)C)CC1 [Example 1]	-6	≤ 0.1
